Tested on: Anxa6^em1(GFP) mice
Test: Prednisone injection, annexin A6GFP repair cap after laser injury of isolated myofibers
Type: in vivo, mouse
Settings: 1 mg/kg intraperitoneal, myofibers isolated 24 hours post injection; vs DMSO control
Protocol: Multiphoton laser injury and imaging. Isolated fibers were subjected to laser-induced damage at room temperature using the Nikon A1R-MP multiphoton microscope. Imaging was performed using a 25×1.1 NA objective directed by the NIS-Elements AR imaging software. Green fluorescence protein (GFP) and FM 4-64 were excited using a 920 nm wavelength laser and emission wavelengths of […] and 629 nm were collected respectively. To induce laser damage on isolated myofibers, a diffraction limited spot (diameter approximately 410 nm) was created on the lateral membrane of the myofiber using a 920 nm wavelength laser at 10-15% laser power for 1 second. Time lapse images were collected as follows: one image was collected prior to damage, one image upon damage, then every 8 s for 80 s (10 images) followed by every 30 seconds for 5 min (10 images). At the end of the time lapsed image series, z-stack images were collected at 250 nm intervals through the damaged site on the myofiber directed by the NIS-Elements AR imaging software. Fluorescence intensity and cap area were measured using Fiji (NIH).
For prednisone studies, prednisone (catalog P6254) was resuspended in DMSO (catalog D2650, Sigma-Aldrich) at 5 mg/ml. Dosing was based on pretreatment weights (1 mg/kg body weight) in 30 μl total PBS. Mice were injected at 7 am on the day prior to imaging. […]

C[C@]12C=CC(=O)C=C1CC[C@@H]1[C@@H]2C(=O)C[C@@]2(C)[C@H]1CC[C@]2(O)C(=O)CO [prednisone]
annexin A6GFP repair cap size: reduced

— patent publication US20220143136A1, “USE OF ANNEXINS IN PREVENTING AND TREATING MUSCLE MEMBRANE INJURY” (NORTHWESTERN UNIVERSITY, priority 2018, published 2022)
